Laboratory results taken from patent US20150057447A1, “METHOD OF PRODUCING N-PHENYL-N'-PHENYLSULFONYL PIPERAZINE DERIVATIVE AND INTERMEDIATE THEREOF” (priority 2012, published 2015).

Legend:
Format in all cases: physicochemical
[1] = Evaluation of sublimation (heating under reduced pressure, flask with condenser tube)
Protocol: 5-Chloro-2-(1,3-oxazole-2-yl)phenol (I-3, 3.01 g, 15.4 mmol) which was obtained from the method described in Patent Document 6 was measured in a round-bottomed flask with condenser tube filled with −15° C. cooling liquid, and heated at 40° C. for 6 hours under the reduced pressure (16˜18 mmHg). After 6 hours, 0.02 g of colorless solids were adhered to the condenser tube. The colorless solids were measured by ^1H-NMR (DMSO-d6), it was confirmed to be 5-chloro-2-(1,3-oxazole-2-yl)phenol (I-3).

[2] = Evaluation of sublimation by measuring TG/DTA; conditions: for sublimation (conclusion from TG/DTA): open system
Protocol: Evaluation of Sublimation by Measuring TG/DTA
(1) 5-Chloro-2-(1,3-oxazole-2-yl)phenol (I-3, 5 mg) which was obtained from the method described in Patent Document 6 was measured, and an aluminum pan was stuffed with it and measured in the open system. The measurement conditions are as follows.
Device: TG/DTA 7200 by SII nano technology Measurement temperature range: 30° C.-200° C. Heating rate: 10° C./minute Purge gas: N2 200 mL/minute
(2) 5-Chloro-2-(1,3-oxazole-2-yl)phenol (I-3, about 10 mg) which was obtained from the method described in Patent Document 6 was measured, and an aluminum pan was stuffed with it and measured in the open system. The measurement conditions are as follows.
Device: TG/DTA 7200 by SII nano technology Measurement temperature, range: 40° C. Measurement time: 720 minutes Purge gas: N2 200 mL/minute
(3) Magnesium bis[5-chloro-2-(1,3-oxazole-2-yl)phenolate (I-2, 5 m g) which was obtained from Example 1(1) was measured, and an aluminum pan was stuffed with it and measured in the open system. The measurement conditions are as follows.
Device: TG/DTA 7200 by SII nano technology Measurement temperature program: 30° C.-200° C. Rate of temperature increase: 10° C./minute Purge gas: N2 200 mL/minute

[3] = Evaluation of hygroscopicity by measuring moisture adsorption-desorption isotherm; conditions: 25° C.; for ratio of mass increase, moisture desorption isotherm: 0% RH; for ratio of mass increase relative to the mass at 0% RH, moisture adsorption isotherm: 95% RH
From the text: Moisture adsorption-desorption isotherm is one of means for measuring the adsorption or desorption of moisture. It is a method of measuring the mass change as a function of the relative humidity at constant temperature, and under the conditions where adsorption or desorption is essentially occurring independently of time (equilibrium conditions). Moisture adsorption-desorption isotherm is obtained by plotting relative humidities versus the ratio(%) of the mass increase compared to the mass when the relative humidity of 0%. Accordingly, it is possible to obtain the information about hygroscopicity or dehumidifying nature of the sample.
Moisture adsorption-desorption isotherm of the compounds specified in following (1) to (4) obtained from corresponding examples were measured by the following conditions.
(Operating Method) About 50 mg of the sample was weighted in the mesh stainless-steel sample container, then it was dried at the relative humidity (hereinafter, RH) 0% until the mass change doesn't happen in the device. Temperature and humidity were controlled by the following conditions, and dynamic gravimetric measurement was conducted. Measurement temperature: 25° C. Measurement humidity range: adsorption 0˜95% RH, desorption 95˜0% RH, 5% RH interval Measurement condition: Isotherm condition Herein, isotherm condition means that measurement is move on to next humidity point when the mass change is no longer observed after minimum waiting time or when the equilibrium of mass was not observed until maximum waiting time under constant humidity. The minimum waiting time for equilibrium determination at each humidity: 10 minutes The maximum waiting time for equilibrium determination at each humidity: 2 hours Humidity control: nitrogen and humidification device, 250 mL/minutes (1) Result of the moisture adsorption-desorption isotherm for magnesium bis[5-chloro-2-(1,3-oxazole-2-yl)phenolate] In measuring the moisture adsorption isotherm, in the case of 95% RH, the ratio of mass increase was 2% relative to the mass at 0% RH. In measuring the moisture desorption isotherm, in the case of 0% RH, the ratio of mass increase was 0%. (2) Result of the moisture adsorption-desorption isotherm for calcium bis[5-chloro-2-(1,3-oxazole-2-yl)phenolate] In measuring the moisture adsorption isotherm, in the case of 95% RH, the ratio of mass increase was 3% relative to the mass at 0% RH. In measuring the moisture desorption isotherm, in the case of 0% RH, the ratio of mass increase was 0%.

Compound	colorless solids adhered to the condenser tube ([1]; 3.01 g heated at 40° C. for 6 hours under reduced pressure (16~18 mmHg), condenser at -15° C.) [g]	sublimation (conclusion from reduced pressure heating test) ([1]; 40° C., 6 hours, 16~18 mmHg)	weight loss (TG/DTA, constant temperature) ([2]; 40° C., 720 minutes, solid state, open aluminum pan, N2 200 mL/minute) [%]	sublimation (conclusion from TG/DTA) [2]	weight loss (TG/DTA) ([2]; observed at 40-85° C., range 30° C.-200° C., heating rate 10° C./minute, open aluminum pan, N2 200 mL/minute) [%]	ratio of mass increase, moisture desorption isotherm [3] [%]	ratio of mass increase relative to the mass at 0% RH, moisture adsorption isotherm [3] [%]	melting and weight loss (TG/DTA) ([2]; about 30° C.-about 180° C., program 30° C.-200° C., 10° C./minute, N2 200 mL/minute)
Oc1cc(Cl)ccc1-c1ncco1 [Compound I-3, 5-chloro-2-(1,3-oxazole-2-yl)phenol]	0.02	has sublimation	1.6	has sublimation	0.38			
calcium bis[5-chloro-2-(1,3-oxazole-2-yl)phenolate] [Compound I-7]						0	3	
magnesium bis[5-chloro-2-(1,3-oxazole-2-yl)phenolate] [Compound I-2]				doesn't have sublimation		0	2	not observed
